One experiment relates to Danio rerio. Kind of experiment: In Vivo Angiogenesis Dose-Response Confirmation. [Related pubchem assays: 732 (Assay preceding this confirmatory assay.)]. The format is functional, organism-based.
Another experiment addresses Genome polyprotein (Hepatitis C virus, UniProt Q2Q167). Kind of experiment: HCV core protein dimerization inhibitors, dose response, biochemical, TR-FRET (AID 2159).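 Further: blocks dimerization of HCV core protein measured by TR-FRET between tagged core106 pairs.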 More on the design: species or system Hepacivirus hominis.
Experiment [1] is described as follows: Fluorescence Cell-Based Dose Response to Identify Inhibitors of Thrombin Receptor-Activating Peptide SFLLRN-Mediated P-Selectin Induction on Platelets. [Related pubchem assays: 1663 (Primary HTS), 1889 (retest at dose ), 1891 (counterscreen), 1678 (Project Summary)]. The format is functional. Background: A counterscreen serves to expose hits that act by an unwanted route or on another target.

The nature of experiment [2]: Luminescence Cell-Based Dose Confirmation HTS to Identify Inhibitors of Platelet Dense Granule Release. [Related pubchem assays: 1663 (Primary HTS), 1678 (Summary of Project)]. The format is functional.
For experiment [3], the target named is Luciferin 4-monooxygenase (Photinus pyralis, UniProt P08659). Kind of experiment: firefly luciferase enzyme inhibitors, dose response, biochemical, luminescence (AID 1891).
In experiment [4] the target is Diphosphomevalonate decarboxylase (Streptococcus pneumoniae serotype 2 (strain D39 / NCTC 7466), UniProt Q9FD53). In words: S. pneumoniae DPM-DC inhibition retest, confirmation, biochemical, cuvette format, coupled NADH fluorescence (AID 1028). The format is functional.
In experiment [5] the target is T1, Mucolipin-3 (Homo sapiens, UniProt Q8TDD5).
T1 sequence (Q8TDD5 whole entry): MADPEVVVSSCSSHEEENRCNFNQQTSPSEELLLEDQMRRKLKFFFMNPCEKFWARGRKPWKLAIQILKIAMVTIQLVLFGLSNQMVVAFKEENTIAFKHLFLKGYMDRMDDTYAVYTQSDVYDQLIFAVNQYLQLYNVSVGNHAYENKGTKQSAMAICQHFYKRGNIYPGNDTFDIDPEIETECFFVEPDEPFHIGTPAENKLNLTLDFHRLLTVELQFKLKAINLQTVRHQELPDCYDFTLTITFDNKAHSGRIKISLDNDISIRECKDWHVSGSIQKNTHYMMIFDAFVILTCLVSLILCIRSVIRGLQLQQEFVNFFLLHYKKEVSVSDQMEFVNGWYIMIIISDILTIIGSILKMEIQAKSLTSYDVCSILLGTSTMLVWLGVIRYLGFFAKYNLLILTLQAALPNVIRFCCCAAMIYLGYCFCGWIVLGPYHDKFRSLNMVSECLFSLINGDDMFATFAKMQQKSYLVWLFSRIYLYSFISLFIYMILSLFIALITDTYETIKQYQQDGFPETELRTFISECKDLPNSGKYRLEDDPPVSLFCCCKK
In words: TRPML3 agonist potency, dose response, cell-based, calcium fluorescence (AID 2510). The format is functional.

In experiment [6] the target is T1, Mucolipin-3. In words: Dose response cell-based high-throughput screening assay for agonists of the transient receptor potential channel ML3 (TRPML3). [Related pubchem assays: 1526, 1424, 1448 ]. The format is functional.
The target of experiment [7] is T2, Ion channel NompC (Danio rerio, UniProt Q7T1G6). In words: Fluorescence counterscreen assay for TRPML3 agonists: dose response cell-based high-throughput screening assay to identify agonists of the transient receptor potential channel N1 (TRPN1). [Related pubchem assays: 1526, 1424, 1448 ]. The format is functional.
For experiment [8], the target named is T2, Ion channel NompC. Kind of experiment: Late stage counterscreen for the probe development effort to identify selective agonists of the Transient Receptor Potential Channels 3 (TRPML3): fluorescence-based cell-based dose response assay for TRPN1 agonists. The format is functional.
Experiment [9] has as its target Peroxisome proliferator-activated receptor gamma/Nuclear receptor coactivator 3 (Homo sapiens, UniProt P37231). Kind of experiment: TR-FRET dose response biochemical High Throughput Screening assay for agonists of the steroid receptor coactivator 3 (SRC-3) recruitment by the peroxisome proliferator-activated receptor gamma (PPAR gamma): non-selective agonists. [Related pubchem assays: 1301 (Confirmation screen.), 1048 (Primary screen.)]. The format is functional. (In general: TR-FRET usually uses a lanthanide donor and a delayed reading to cut background.)

In experiment [10] the target is Peroxisome proliferator-activated receptor gamma/Nuclear receptor coactivator 1 (Homo sapiens, UniProt P37231). Kind of experiment: TR-FRET dose response biochemical High Throughput Screening assay for agonists of the steroid receptor coactivator 1 (SRC-1) recruitment by the peroxisome proliferator-activated receptor gamma (PPAR gamma): non-selective agonists. [Related pubchem assays (depositor defined):AID1300, AID1808, AID504735, AID631]. The format is protein assay.

Experiment [11] deals with Mitogen-activated protein kinase 10 (Homo sapiens, UniProt P53779). Kind of experiment: Dose response biochemical screening assay for inhibitors of c-Jun N-Terminal Kinase 3 (JNK3). [Related pubchem assays: 746 ].
Experiment [12] deals with Peroxisome proliferator-activated receptor gamma/Nuclear receptor coactivator 2 (Homo sapiens, UniProt P37231). Kind of experiment: TR-FRET dose response biochemical High Throughput Screening assay for agonists of the steroid receptor coactivator 2 (SRC-2) recruitment by the peroxisome proliferator-activated receptor gamma (PPAR gamma): non-selective agonists. [Related pubchem assays: 1297, 1032 ]. The format is functional.

The test system of another experiment is Streptococcus. Kind of experiment: Group A Streptococcus viability loss, dose response, counter-screen for streptokinase expression inhibitor project, luminescence, BacTiterGlo (AID 1915).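 Further: potency for reduction of bacterial viability or growth.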 The format is functional, organism-based.
Experiment [13] has as its system Streptococcus sp. 'group A'. In words: growth inhibition of control SK(-) GAS strain, dose response, counter-screen for streptokinase expression inhibitor project, luminescence, kanamycin, BacTiterGlo, confirmation (AID 1900). The format is functional, organism-based.
Experiment [14] concerns the target Voltage-gated inwardly rectifying potassium channel KCNH2 (Homo sapiens, UniProt Q12809). Kind of experiment: hERG protection from proarrhythmic block, potency, dose response, cell-based, thallium flux (AID 2121). The format is ADME. (Block of hERG is tested as a sign of cardiac risk.)
The target in another experiment is T3, Estrogen receptor (Homo sapiens, UniProt P03372).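 Further: potency for inhibiting coactivator peptide recruitment to the receptor.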
T3 sequence (P03372 whole entry): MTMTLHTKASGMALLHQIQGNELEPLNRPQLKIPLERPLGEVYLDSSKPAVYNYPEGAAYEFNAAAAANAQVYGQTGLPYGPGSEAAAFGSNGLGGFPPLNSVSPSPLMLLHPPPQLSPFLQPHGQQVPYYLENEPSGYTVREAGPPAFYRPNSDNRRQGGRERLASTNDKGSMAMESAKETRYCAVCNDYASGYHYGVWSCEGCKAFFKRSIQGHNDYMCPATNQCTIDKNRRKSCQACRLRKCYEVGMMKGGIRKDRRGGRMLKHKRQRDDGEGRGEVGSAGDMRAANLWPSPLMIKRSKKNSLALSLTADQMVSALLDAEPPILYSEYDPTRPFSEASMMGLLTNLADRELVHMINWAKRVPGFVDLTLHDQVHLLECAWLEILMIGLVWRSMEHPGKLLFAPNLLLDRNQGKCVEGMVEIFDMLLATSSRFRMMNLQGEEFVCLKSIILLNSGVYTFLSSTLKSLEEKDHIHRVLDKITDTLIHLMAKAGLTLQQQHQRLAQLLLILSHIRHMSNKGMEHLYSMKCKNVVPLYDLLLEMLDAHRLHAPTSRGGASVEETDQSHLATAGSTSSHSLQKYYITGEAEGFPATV

For the next experiment, the target named is NS3 (Hepatitis C virus, UniProt A3EZJ3). In words: HCV NS3 helicase inhibitor potency, dose response, biochemical, fluorescence polarization, ChemBridge library (AID 743264).
The target in experiment [15] is T4, RNA-binding protein pos-1 (Caenorhabditis elegans, UniProt G5EF15).
T4 sequence (G5EF15 whole entry): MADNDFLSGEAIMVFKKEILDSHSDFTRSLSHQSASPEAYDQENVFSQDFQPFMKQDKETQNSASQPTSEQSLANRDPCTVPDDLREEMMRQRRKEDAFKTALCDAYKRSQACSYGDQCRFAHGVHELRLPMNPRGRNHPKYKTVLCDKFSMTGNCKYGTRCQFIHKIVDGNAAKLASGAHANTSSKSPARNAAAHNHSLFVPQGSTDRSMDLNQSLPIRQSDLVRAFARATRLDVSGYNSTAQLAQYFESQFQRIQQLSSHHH
In words: inhibitors of POS-1/mex-3 RNA binding, dose response, biochemical, fluorescence polarization (AID 1964).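 Further: purified POS-1 fused to maltose binding protein made in E. coli; potency of compounds blocking POS-1 binding to fluorescent RNA.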

Experiment [16] addresses T5, Zinc finger protein mex-5 (Caenorhabditis elegans, UniProt Q9XUB2).
T5 sequence (Q9XUB2 whole entry): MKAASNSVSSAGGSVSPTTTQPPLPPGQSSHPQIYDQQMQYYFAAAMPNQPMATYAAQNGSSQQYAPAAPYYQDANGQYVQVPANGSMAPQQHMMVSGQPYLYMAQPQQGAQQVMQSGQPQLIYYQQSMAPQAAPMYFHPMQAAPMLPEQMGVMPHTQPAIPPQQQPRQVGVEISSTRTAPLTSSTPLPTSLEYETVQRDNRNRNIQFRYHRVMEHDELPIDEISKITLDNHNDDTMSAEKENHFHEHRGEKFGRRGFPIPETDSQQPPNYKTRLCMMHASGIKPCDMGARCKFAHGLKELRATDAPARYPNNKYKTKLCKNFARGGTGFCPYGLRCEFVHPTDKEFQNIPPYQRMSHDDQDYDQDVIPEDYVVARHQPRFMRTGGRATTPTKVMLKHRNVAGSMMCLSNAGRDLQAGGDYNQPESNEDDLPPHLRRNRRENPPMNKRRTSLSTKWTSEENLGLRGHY
Kind of experiment: MEX-5/TCR-2 RNA interaction inhibitors, dose response, biochemical, C. elegans, fluorescence polarization (AID 1960).

The target in experiment [17] is Tyrosine-protein phosphatase non-receptor type 7 (Homo sapiens, UniProt P35236). In words: inhibitors of human HePTP phosphatase, […], biochemical, absorbance, leukemia target (AID 521). The format is functional.
Experiment [18] is described as follows: HepG2 cell cytotoxicity, dose response, cytotoxicity control for non-replicating M. tuberculosis project (AID 489018). Particulars: Mycobacterium tuberculosis. The format is functional.
The nature of experiment [19]: Vero E6 cell cytotoxicity, dose response, cytotoxicity control for non-replicating M. tuberculosis project, secondary assay (AID 492998). The format is functional, VeroE6. The note with it: Vero C1008.
Another experiment concerns the target Paired box protein Pax-8 (Homo sapiens, UniProt Q06710). In words: inhibitors of PAX8-driven TPO luciferase reporter, dose response, RMG-I cells, cherry-pick (AID 687027).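 Further: luciferase reporter driven by Pax8 target thyroperoxidase promoter measured by SteadyGlo luminescence.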 The format is functional, cell-based.
Experiment [20] can be described thus: Luminescent dose response cell-based high throughput screening assay for inhibitors of the Janus kinase 2 mutant JAK2V617F. [Related pubchem assays: 1446 (Primary screen.), 1521 (Confirmation assay.), 1486 (Counter screen.)]. The format is functional.
Another experiment in a line: cells. The format is functional.
Experiment [21] in a line: THP-1 cell cytotoxicity, dose response, cytotoxicity control for non-replicating M. tuberculosis project (AID 489025). The format is functional.

Each structure is given as a SMILES string. Activity calls are given as the source filed them.

T2 sequence (Q7T1G6 whole entry): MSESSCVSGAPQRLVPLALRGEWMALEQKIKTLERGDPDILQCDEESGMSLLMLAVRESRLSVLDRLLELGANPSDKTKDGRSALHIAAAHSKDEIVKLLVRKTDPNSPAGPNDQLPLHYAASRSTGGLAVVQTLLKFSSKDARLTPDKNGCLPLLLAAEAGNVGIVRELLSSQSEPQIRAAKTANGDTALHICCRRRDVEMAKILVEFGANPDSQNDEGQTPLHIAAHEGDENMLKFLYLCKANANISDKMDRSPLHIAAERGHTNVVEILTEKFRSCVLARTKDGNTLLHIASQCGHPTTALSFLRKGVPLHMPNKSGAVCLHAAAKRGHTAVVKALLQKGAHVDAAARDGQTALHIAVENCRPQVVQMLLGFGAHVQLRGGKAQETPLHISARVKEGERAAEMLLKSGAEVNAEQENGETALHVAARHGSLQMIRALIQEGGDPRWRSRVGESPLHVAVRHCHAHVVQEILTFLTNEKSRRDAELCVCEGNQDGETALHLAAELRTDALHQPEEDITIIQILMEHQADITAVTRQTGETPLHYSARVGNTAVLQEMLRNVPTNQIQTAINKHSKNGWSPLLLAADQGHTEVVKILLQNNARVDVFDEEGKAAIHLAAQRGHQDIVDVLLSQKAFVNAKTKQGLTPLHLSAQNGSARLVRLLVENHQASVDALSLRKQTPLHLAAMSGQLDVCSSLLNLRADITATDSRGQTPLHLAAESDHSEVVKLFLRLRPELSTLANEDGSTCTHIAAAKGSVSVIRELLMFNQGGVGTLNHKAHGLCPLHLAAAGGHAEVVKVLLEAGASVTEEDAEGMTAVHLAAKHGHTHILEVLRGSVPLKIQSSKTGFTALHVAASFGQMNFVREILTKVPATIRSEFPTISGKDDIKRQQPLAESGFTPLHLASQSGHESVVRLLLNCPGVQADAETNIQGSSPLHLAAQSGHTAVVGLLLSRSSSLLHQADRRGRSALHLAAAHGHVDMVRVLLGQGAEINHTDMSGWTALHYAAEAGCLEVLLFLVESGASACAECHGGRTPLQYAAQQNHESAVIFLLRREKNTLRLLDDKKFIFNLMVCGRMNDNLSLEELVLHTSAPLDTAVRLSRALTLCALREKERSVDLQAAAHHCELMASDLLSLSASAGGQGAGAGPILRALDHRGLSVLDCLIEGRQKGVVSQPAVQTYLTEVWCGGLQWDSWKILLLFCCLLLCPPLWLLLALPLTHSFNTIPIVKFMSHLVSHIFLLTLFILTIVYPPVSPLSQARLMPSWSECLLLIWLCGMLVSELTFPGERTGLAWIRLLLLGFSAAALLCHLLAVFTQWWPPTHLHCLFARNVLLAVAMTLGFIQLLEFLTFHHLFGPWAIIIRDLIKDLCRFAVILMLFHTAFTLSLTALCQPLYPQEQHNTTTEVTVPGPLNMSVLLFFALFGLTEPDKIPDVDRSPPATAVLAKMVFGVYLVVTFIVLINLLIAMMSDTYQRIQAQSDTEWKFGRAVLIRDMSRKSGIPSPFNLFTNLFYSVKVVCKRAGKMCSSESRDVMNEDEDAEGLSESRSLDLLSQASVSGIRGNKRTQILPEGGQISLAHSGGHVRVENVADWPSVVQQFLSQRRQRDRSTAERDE
Chain of Tyrosine-protein phosphatase non-receptor type 7 (P35236 whole entry): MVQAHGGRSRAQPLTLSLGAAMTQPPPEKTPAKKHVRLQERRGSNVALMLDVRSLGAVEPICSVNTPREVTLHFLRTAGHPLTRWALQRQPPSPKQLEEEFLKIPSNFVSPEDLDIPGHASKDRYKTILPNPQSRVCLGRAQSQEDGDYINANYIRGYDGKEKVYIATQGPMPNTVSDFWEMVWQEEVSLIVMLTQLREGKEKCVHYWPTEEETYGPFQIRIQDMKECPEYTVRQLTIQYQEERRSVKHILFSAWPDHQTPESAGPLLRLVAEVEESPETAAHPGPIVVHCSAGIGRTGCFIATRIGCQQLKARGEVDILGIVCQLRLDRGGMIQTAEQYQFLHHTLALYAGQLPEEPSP
Chain of Genome polyprotein (Q2Q167 whole entry): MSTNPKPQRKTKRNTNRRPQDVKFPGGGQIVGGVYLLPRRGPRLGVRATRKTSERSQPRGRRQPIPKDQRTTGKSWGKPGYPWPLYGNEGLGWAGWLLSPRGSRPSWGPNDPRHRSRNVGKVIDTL
Chain of Diphosphomevalonate decarboxylase (Q9FD53 whole entry): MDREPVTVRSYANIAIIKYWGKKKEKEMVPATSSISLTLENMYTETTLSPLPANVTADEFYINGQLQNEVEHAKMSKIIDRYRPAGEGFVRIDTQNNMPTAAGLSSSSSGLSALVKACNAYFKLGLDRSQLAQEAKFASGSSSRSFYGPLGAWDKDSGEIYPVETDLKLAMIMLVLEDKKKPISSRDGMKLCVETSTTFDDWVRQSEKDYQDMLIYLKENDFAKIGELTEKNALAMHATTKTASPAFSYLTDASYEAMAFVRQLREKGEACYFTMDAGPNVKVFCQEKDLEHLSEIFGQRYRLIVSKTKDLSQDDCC
Chain of Luciferin 4-monooxygenase (P08659 whole entry): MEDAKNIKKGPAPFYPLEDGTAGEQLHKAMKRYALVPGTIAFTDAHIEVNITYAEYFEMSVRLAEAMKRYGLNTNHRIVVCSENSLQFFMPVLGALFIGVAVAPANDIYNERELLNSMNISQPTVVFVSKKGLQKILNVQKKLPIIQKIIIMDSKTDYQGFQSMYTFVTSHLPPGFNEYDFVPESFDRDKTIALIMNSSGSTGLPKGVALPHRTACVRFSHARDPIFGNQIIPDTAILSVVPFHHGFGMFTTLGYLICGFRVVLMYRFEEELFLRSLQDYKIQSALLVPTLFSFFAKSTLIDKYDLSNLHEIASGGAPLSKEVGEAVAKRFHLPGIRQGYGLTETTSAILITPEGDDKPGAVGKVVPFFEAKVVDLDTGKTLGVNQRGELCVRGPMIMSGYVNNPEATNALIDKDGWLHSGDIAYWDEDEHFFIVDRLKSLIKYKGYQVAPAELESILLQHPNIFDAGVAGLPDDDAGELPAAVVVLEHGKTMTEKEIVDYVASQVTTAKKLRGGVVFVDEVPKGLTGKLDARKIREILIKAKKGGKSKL
Chain of Paired box protein Pax-8 (Q06710 whole entry): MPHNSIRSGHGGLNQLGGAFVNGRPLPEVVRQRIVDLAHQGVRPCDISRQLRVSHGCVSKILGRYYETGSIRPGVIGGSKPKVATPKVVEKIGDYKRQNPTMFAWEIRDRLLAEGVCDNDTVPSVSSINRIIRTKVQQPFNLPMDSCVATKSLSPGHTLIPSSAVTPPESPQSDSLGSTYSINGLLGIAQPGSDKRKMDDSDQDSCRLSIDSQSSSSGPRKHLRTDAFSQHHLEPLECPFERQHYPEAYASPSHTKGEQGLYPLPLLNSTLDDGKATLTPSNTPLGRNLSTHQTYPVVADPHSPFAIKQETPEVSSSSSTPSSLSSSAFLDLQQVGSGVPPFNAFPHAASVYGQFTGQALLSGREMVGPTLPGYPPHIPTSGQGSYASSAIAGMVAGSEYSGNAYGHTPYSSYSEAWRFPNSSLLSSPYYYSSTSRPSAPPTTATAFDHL
Chain of NS3 (A3EZJ3 whole entry): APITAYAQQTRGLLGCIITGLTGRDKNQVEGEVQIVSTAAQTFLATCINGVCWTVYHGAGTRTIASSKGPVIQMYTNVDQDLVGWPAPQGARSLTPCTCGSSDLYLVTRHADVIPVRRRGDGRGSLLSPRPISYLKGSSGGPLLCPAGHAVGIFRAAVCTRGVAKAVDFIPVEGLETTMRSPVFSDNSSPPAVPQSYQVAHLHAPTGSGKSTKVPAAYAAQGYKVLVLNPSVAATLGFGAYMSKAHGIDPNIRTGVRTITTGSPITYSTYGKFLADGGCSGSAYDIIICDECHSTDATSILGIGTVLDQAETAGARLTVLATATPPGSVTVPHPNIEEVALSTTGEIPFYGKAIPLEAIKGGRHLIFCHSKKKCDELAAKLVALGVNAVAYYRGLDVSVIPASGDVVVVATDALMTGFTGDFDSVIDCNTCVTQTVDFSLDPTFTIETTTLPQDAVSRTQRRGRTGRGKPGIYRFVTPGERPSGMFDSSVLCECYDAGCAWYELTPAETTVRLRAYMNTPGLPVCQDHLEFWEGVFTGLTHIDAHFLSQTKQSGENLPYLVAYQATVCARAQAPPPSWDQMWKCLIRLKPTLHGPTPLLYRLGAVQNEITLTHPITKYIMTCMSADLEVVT
Chain of Mitogen-activated protein kinase 10 (P53779 whole entry): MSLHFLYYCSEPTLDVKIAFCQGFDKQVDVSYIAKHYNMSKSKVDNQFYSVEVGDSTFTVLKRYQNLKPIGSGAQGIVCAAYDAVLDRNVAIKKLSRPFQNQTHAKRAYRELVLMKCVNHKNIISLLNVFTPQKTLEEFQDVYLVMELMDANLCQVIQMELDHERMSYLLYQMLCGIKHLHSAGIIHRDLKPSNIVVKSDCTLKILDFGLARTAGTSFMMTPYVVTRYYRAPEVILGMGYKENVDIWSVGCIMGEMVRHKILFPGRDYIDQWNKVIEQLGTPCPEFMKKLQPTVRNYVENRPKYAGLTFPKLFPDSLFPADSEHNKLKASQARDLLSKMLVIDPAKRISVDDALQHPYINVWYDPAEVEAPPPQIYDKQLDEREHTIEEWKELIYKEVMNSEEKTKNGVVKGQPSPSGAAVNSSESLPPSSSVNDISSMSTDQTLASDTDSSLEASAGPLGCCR

In general, IC50 refers to the concentration needed to halve the response being measured. Regarding `O=C1Nc2ccc(F)cc2/C1=C1/Nc2ccccc2/C1=N\O`, in the experiment with Danio rerio, the IC50 was 0.38 µM (not active).

As to `Cc1ccc(-c2nc(=S)c3c(n2Cc2ccco2)CC(C)(C)OC3)cc1`, the IC50 on Genome polyprotein is recorded as > 49.8 µM (not active).

Broadly, the EC50 is the concentration giving half of the maximal effect. With `CCC(=O)Nc1cccc(NC(=O)c2ccccc2Cl)c1`, the EC50 in experiment [1] is < 30 µM (active); in [2], 3.42 µM (active); in experiment [3] it was > 112 µM (not active).

On to `O=C(c1ccc(-n2sc3ccccc3c2=O)cc1)N1CCCC1`, for which the IC50 in experiment [4] was 8.66 µM (active).

For the compound `CCOc1ccc(S(=O)(=O)N2CCCCCC2)c2ccccc12`, the EC50 on Mucolipin-3 [5] is 0.95 µM (active); at Mucolipin-3 [6], 1.03 µM (active); at Ion channel NompC [7], > 29.9 µM (not active); on Ion channel NompC [8], > 29.9 µM (not active).

Consider `CC(=O)c1sc(Nc2ccccn2)nc1C`, for which the EC50 in experiment [9] is > 79.4 µM (not active); in [10], > 79.4 µM (inactive); in [12], > 79.4 µM (not active). For the same compound, in [11], the IC50 is 40.3 µM (not active).

With `CCOc1ccc2nc(N3C(=O)/C(=C/c4ccc(Cl)cc4)NC3=S)sc2c1`, the EC50 in the experiment with Streptococcus was 0.855 µM (active); in experiment [13], 1.8 µM (active); in [14], 1.24 µM (active).

As for `Cc1cc(C(=O)O)ccc1-n1c(C)ccc1C`, the IC50 was 7.53 µM (active) at Estrogen receptor, 6.25 µM (inactive) on NS3 and 0.76 µM (active) in experiment [17]. In addition, the values for the EC50 in [15] and in experiment [16] were 5.94 µM (active) and 8.59 µM (active), respectively.

The CC50 is the concentration that lowers cell viability or growth by half. The term AC50 denotes the concentration giving half of the maximal activity seen. As to `CCOc1ccc(C(=O)C(CN2CCOCC2)c2ccccc2)cc1` (stereo not drawn), the values for the CC50 in experiment [18], in experiment [19] and in experiment [21] were 16.1 µM (active), 8.04 µM (active) and 5.48 µM (active), respectively. Moreover, on Paired box protein Pax-8, the AC50 was 1.96 µM (active). Further, the IC50 is 0.73 µM (active) in experiment [20] and 10.3 µM (active) in the experiment “cells”.
